Literature values, collected in patent US20220265635A1, “TREATMENT OF NEUROLOGICAL DISEASE” (Aclipse One Inc., priority 2018, published 2022).

Test system: dopamine receptors
Details: background description; cited from earlier work

Compound: CN1CCc2cccc3c2[C@H]1Cc1ccc(O)c(O)c1-3 [(6aR)-6-methyl-5,6,6a,7-tetrahydro-4H-dibenzo[de,g]quinoline-10,11-diol, reference compound]
- activity on dopamine receptors (in words): strong dopamine agonist
